Test results from patent US20200113882A1, “Use of 4-Aminopyridine to Improve Neuro-Cognitive and/or Neuro-Psychiatric Impairment in Patients with Demyelinating and Other Nervous System Conditions” (priority 2009, published 2020).

Key:
[1] = tested on: normal adult myelinated axons; conditions: cited from earlier work
[2] = adverse events in clinical studies; assay type: in vivo, human; conditions: controlled clinical studies
Source text: In controlled clinical studies involving the use of fampridine, the most frequent adverse events by body system occurred in the nervous system, “body as a whole”, and digestive system.
While an increased incidence of such events appears to be moderately dose-related, the susceptibility of individuals is quite variable. The potential for lowering seizure threshold in people with MS appears to be more significant than for people with spinal cord injury, which may result from interaction of the channel-blocking properties of the drug with MS brain pathology in certain individuals.

[3] = tested on: cognitive function in MS patients; conditions: prior study; cited from earlier work
[4] = single- and repeated-dose toxicity studies in animals; assay type: in vivo
Method: In single- and repeated-dose toxicity studies, the dosing regimen greatly affected the rate of mortality and incidence of clinical signs in all species studied (with the possible exception of the mouse). In general, higher mortality rates and greater incidences of adverse clinical signs were noted when 4-aminopyridine was administered in a single large dose as compared to when the same total dose was given as two, three, or four equally divided sub-doses. Toxic responses to orally administered 4-aminopyridine were rapid in onset, most often occurring within the first 2 hours post-dose.
These clinical signs were not unexpected and represent exaggerated pharmacology of 4-aminopyridine.

[5] = rat pharmacokinetics after i.v. and p.o. 2 mg/kg (M 2001-03); conditions: rats, single p.o. 2 mg/kg
[6] = 14C-4-aminopyridine single oral dose 1 mg/kg in rats (HWI 6379-101): absorption, tissue distribution
Method: (§1) Studies were performed in rats and dogs using ^14C-labeled 4-aminopyridine (1 mg/kg) given as a single oral gavage dose in solution.
In a single-dose study, rats were administered ^14C-labeled 4-aminopyridine (1 mg/kg) p.o. Three animals per time point were sacrificed 1, 3, 8, and 24 hours post-dose. Blood was collected and tissues were excised for determination of radioactivity.

[7] = 14C-4-aminopyridine single oral dose 1 mg/kg in dogs (HWI 6379-102): absorption; assay type: in vivo, dog; conditions: equal mg/kg doses, 1 mg/kg oral
Method: as §1

[8] = rats, 1 mg/kg p.o., one hour post-dose

Row | Compound | concentrations that tend to cause gradual depolarization of the axon resting potential ([1]; (94.1 μg/mL)) | concentrations at which action potential shows little or no sensitivity ([1]; normal adult myelinated axons (9.4 μg/mL)) | most common nervous system adverse events [2] | most frequently reported digestive system adverse event [2] | benefit of cognitive function [3] | clinical signs ([4]; after large single doses or repeated lower doses, all species studied) | onset of toxic responses post-dose ([4]; orally administered, most often) [h] | Vdss difference between males and females adjusted for body weight [5] [%] | time to peak plasma levels ([6]; both, rat, in vivo, po, 1 mg/kg) [h] | radioactive dose in carcass ([6]; rats, 1 mg/kg p.o., 3 hours post-dose) [%] | dose accounted for in total (radioactivity) [6, 8] [%] | radioactivity in blood, percent of dose [6, 8] [%] | radioactivity in carcass [6, 8] [%] | radioactivity in kidney, percent of dose [6, 8] [%] | radioactivity in liver, percent of dose [6, 8] [%] | Cmax and AUC in the dog relative to the rat [7]
1 | Nc1ccncc1 [4-aminopyridine] | above 1 mM | below 100 μM | Dizziness, insomnia, paresthesia, pain, headache and asthenia | nausea | did not show benefit | tremors, convulsions, ataxia, dyspnea, dilated pupils, prostration, abnormal vocalization, increased respiration, excess salivation, gait abnormalities, and hyper- and hypo-excitability | ≤ 2 | 2 | – | – | – | – | – | – | – | –
2 | Nc1ccncc1 [14C-4-Aminopyridine] | – | – | – | – | – | – | – | – | 0.5 to 1 | 15.4 | 58.3 | 0.7 | 51 | 1.6 | 2.6 | approximately four-fold higher
